Assay: Human HepG2 cell viability assay in 384 well format
Type: toxicity, cell-based
Set-up: dose 125 nL, time 70.5 hour; cytotoxicity at 70.5 h: concentration not given beside the values
Conditions: HepG2 cells, read-out: Inhibition

SMILES | cytotoxicity at 70.5 h
N#Cc1cccc(OCCN2CCOC(Cn3cccn3)C2)c1 (stereo unspecified) | -3.46%
COC(=O)CC1CCN(C(=O)c2ccccc2-n2nnnc2C)CC1 | -12.6%
CS(=O)(=O)Cc1nc(CNc2ccc(F)c(F)c2)cs1 | -6.66%
COCCN1CCCc2sc(C(=O)NCC3CCCO3)nc21 (stereo unspecified) | 31.2%
CCc1nc2n(n1)CC(NCc1nc(C)c(C)o1)CC2 (stereo unspecified) | -5.85%
CCOc1ccc(S(=O)(=O)N(CCOC)Cc2ccncc2)cc1F | 35.3%
C[S+]([O-])c1cccc(NC(=O)N(CCC#N)Cc2ccccn2)c1 (stereo unspecified) | -12%
Cc1ccc2cccc(Oc3nc(C)c(C(=O)O)s3)c2n1 | 14.9%
CCOCC1CN(C(=O)CS(C)(=O)=O)Cc2cnn(C)c21 (stereo unspecified) | -14.4%
CCc1n[nH]c(C2CN(Cc3nc(C4CC4)no3)CCO2)n1 (stereo unspecified) | -3.3%
Cn1c(CN2CCN(CC3CC3)CC2)nnc1C1CCC1 | 20.3%
Cn1cc(N2CCC3(CCN(Cc4nccs4)C3)C2=O)cn1 (stereo unspecified) | -12.1%
CN(C)c1cc(C(=O)Nc2ccccc2C(=O)NC(C)(C)C)ccn1 | -2.3%
COc1cc(N2CC[C@@H](OC)[C@@H]2Cc2cnn(C)c2)ncn1 | 33.8%
CC(C)(C)c1cn2nc(N3CCCC(Cn4cncn4)C3)sc2n1 (stereo unspecified) | -9.57%
CCN1CCCC12CCN(C(=O)c1nccn1C)CC2 | -7.36%
CC(C)C(=O)NC1CCCN(C(=O)c2ccccc2O)C1 (stereo unspecified) | -7.34%
CCN(CC)S(=O)(=O)c1csc(C(=O)N2CCC(C(N)=O)CC2)c1 | -2.86%
N#Cc1cccnc1OC1CCN(C(=O)NCc2ccccc2)CC1 | -4.78%
COc1cc2c(cc1OC)CN(C(C(=O)O)c1c(C)nn(C)c1C)CC2 (stereo unspecified) | -6.71%
O=C1CCCN1Cc1ncn2c1CN(C(=O)NC1CCCCC1)CCC2 | 27.2%
CCN1C(=O)CC[C@]12CC[C@@H](NC(=O)c1cnccn1)CC2 | 12.9%
Cc1cnc(C(=O)N2CCN(Cc3csc(C)n3)CC2)cn1 | -6.71%
CN(C)Cc1nnc2n1CCCN(C(=O)c1c[nH]cn1)C2 | -0.569%

SMILES | cytotoxicity at 70.5 h
CC(C)OCc1ccccc1CNC(=O)C(C)S(=O)(=O)C(C)C (stereo unspecified) | -5.26%
CCC(C)(CCO)NC(=O)c1ccon1 (stereo unspecified) | 24.8%
Cc1cc(C)c(Cn2cncn2)cc1CN1CCC(CN)C1 (stereo unspecified) | -0.164%
c1cncc(-c2noc(CNc3ncnc4c3CCNCC4)n2)c1 | -5.95%
CC(C)(C)c1n[nH]cc1CNCC1CCN(C2CC2)C1 (stereo unspecified) | -6.24%
OC(COc1ccc(F)cc1)CN1CCC(Cn2cccn2)CC1 (stereo unspecified) | 10.3%
CCN1CCN(c2ccc(C(=O)NCc3cc(C)no3)cc2F)CC1 | -4.13%
CN1C(=O)CO[C@H]2CN(C(=O)Nc3ccc(F)cc3)C[C@H]21 | -7.97%
Cc1nnc(SC2CCc3ccccc3NC2=O)o1 (stereo unspecified) | -16.3%
N#Cc1cccc(OCCN2CCCC2C(=O)NC2CC2)c1 (stereo unspecified) | 4.05%
O=c1ccc2c([nH]1)CCN(S(=O)(=O)c1ccc3c(c1)OCCO3)C2 | 1.39%
O=C(CCC(=O)Nc1nnc(C(F)(F)F)s1)NCC1CCCO1 (stereo unspecified) | -0.323%
CCC(Nc1ccc(Oc2ccccc2OC)cc1)C(N)=O (stereo unspecified) | -4.77%
CCn1cc(Cl)c(C(=O)NCCOC)n1 | -0.484%
CNC(=O)c1cccnc1Oc1ccccc1 | -5.8%
Cn1cnc2c1CCN(CC(=O)N(Cc1ccsc1)C1CC1)C2 | 0.271%
Cn1cnc2c1CCN(CC(O)c1ccc3c(c1)OCCO3)C2 (stereo unspecified) | 9.43%
NC(=O)CCC1CCCN(c2ncnc3c2Cc2ccccc2OC3)C1 (stereo unspecified) | -4.64%
COc1cccn(CC(=O)N2CCCC3(CCOCC3)C2)c1=O | -1.15%
CN(C)Cc1nnc(C2CCN(C(=O)CCc3cccs3)CC2)n1C | -8.36%
CCc1ccc(C2CCCCCN2Cc2nc(CCOC)no2)o1 (stereo unspecified) | -6.85%
CS(=O)(=O)CCC(=O)Nc1ccsc1 | -14.4%
Fc1ccc(CN2CCCC2Cn2cccn2)c2ncccc12 (stereo unspecified) | -10.6%
O=C(Cc1csc(-c2ccco2)n1)N1CCN(c2ccccc2O)CC1 | -4.66%

SMILES | cytotoxicity at 70.5 h
COCCN1CCN(Cc2c(C)noc2C)Cc2ccc(C)nc21 | -1.53%
COCC(=O)N1CC[C@H]2C[C@H](C)O[C@@H]2C1 | -7.04%
O=C(C1CCC2(CCN(CC3CCOCC3)CC2)O1)N1CCCCO1 (stereo unspecified) | -5.73%
Cc1nc2cc(O)nn2c(C)c1CCC(=O)N(C)CCC(C)C | -7.92%
CC(O)CNCc1ccccc1C(F)(F)F (stereo unspecified) | -5.36%
CC(C(=O)N1CCN(Cc2ccc3c(c2)OCO3)CC1)n1ccnc1 (stereo unspecified) | 0.67%
COCCNC(=O)c1nnc2ccc(N3CCOCC3)cc2n1 | 23.1%
Cc1cccn2c(CNC(C)CCn3cccn3)cnc12 (stereo unspecified) | 3.49%
CO[C@H]1C[C@@H]2CN(C(=O)c3n[nH]c4c3CCCC4)C[C@@H]2C1 | 11%
COC(=O)c1cccc(C(=O)N(C)Cc2ccsc2)c1 | 22.5%
CC(C)(C)NC(=O)CN1CCN(C(=O)Nc2ccc(F)cc2F)CC1 | 9.46%
O=C(Cc1c(F)cccc1Cl)Nc1cc(N2CCCC2)ncn1 | -2.78%
CCc1c(C)sc2c1c(N)nc(=O)n2CCCN(C)C | 5.31%
O=C(C1CC1)N1C[C@@H](F)[C@@H](OCc2nc3ccccc3o2)C1 | 0.185%
Cn1nc(CNC(=O)c2ccc(OC(F)(F)F)cc2)c2c1CCOC2 | 2.03%
Cc1nc(N2CCCC2)ncc1C(=O)Nc1ccc(Br)cc1 | -2.71%
CCc1nnsc1C(=O)NC1CCN(c2ccccn2)CC1 | 11.2%
Cc1cc(-c2nn(C)c(Cl)c2CN2CCOC(C(=O)O)C2)no1 (stereo unspecified) | 13.8%
COCc1cn(C2CCN(C(=O)Cc3ccsc3)CC2)nn1 | -9.06%
COc1ccccc1CC(=O)N1CCCC(n2nc(C)nc2C)C1 (stereo unspecified) | -13%
CC(C)CN1CCCn2nc(CNC(=O)CCN)cc2C1 | -6.27%
CCc1nc(CN(CCc2ccccc2)C2CCN(C)CC2)no1 | -9.81%
CCN1CCOC(CNCc2ccc(OC)c(F)c2)C1 (stereo unspecified) | -6.46%
Cc1cc(CN2CCN(C(=O)c3sccc3C3CC3)CC2)on1 | -13.6%

SMILES | cytotoxicity at 70.5 h
NC(=O)C1(Cc2ccccc2-c2ccccc2)CCCN(CC2CC2)C1 (stereo unspecified) | -14.5%
COCCNc1nc(N2CCOCC2)nc2nccnc12 | -4.36%
CCCn1nnnc1CSc1nccn1CC | -0.835%
c1ccc(OCCN2CCN(c3ncnc4[nH]ccc34)CC2)cc1 | 24.7%
O=C1COC2(CCN(C(=O)c3ccoc3)CC2)CN1Cc1cccnc1 | -6.92%
Cc1c(Cl)c(C(F)(F)F)nn1C(C)C(=O)NC1CCN(C)CC1 (stereo unspecified) | 7.5%
CS(=O)(=O)N1CC[C@H](c2nc3ccc(C(F)(F)F)cc3[nH]2)C1 | -4.96%
CO[C@H]1CO[C@@]2(CCCN(C(=O)N(C)C)C2)C1 | -3.18%
O=C(CCC1CCCC1)N1C[C@H]2CC[C@@H]1CN(Cc1ccncc1)C2 | -11.9%
CCS(=O)(=O)c1ccc2c(c1)OCCO2 | -0.357%
COCCCn1c(CN2CCCC(O)C2)cnc1S(=O)(=O)C1CCCC1 (stereo unspecified) | -5.61%
COC(=O)CCCN(C)C(c1cccnc1)c1ccc(F)cc1F (stereo unspecified) | 5.6%
NC(=O)C(NC(=O)COC1CCCCC1)c1ccccc1 (stereo unspecified) | -4.15%
CCc1nc(C2CCCN(C(=O)c3cc(C(C)C)[nH]n3)C2)no1 (stereo unspecified) | -3.59%
O=C(NC1CC1)[C@@H]1CCO[C@@H]2CCN(Cc3ccsc3)C[C@H]21 | -2.46%
CC(c1nnc(-c2cccs2)o1)N1CCn2c(nnc2C2CC2)C1 (stereo unspecified) | -0.792%
CCc1nc(CN2CCCC(NCc3ncc(C(C)(C)C)o3)C2)no1 (stereo unspecified) | 8.8%
CC(Cc1ccccn1)N(C)Cc1ccc2c(c1)CCO2 (stereo unspecified) | -8.85%
Cc1nc(-c2ccccc2)sc1CSC(C)C(N)=O (stereo unspecified) | -1.25%
CN(c1ccc(F)cc1)S(=O)(=O)c1cc2c(c(C(=O)O)c1)OCCO2 | -10.5%
C=C(C)CN1CCC(Nc2nc(C)ns2)CC1 | -0.501%
O=C(O)c1ccc(S(=O)(=O)Nc2ccccc2F)c(F)c1 | -11%
CN1CCCN(S(=O)(=O)c2cnn(C)c2)c2cc(Cl)ccc21 | -3.72%
Cc1nc(-c2ccc(CO)cc2)cc(C2CCNCC2)n1 | -2.27%

SMILES | cytotoxicity at 70.5 h
CC1CCN(S(=O)(=O)c2cccnc2)c2ccccc2S1 (stereo unspecified) | -3.73%
CC1(C)CNC(=O)c2nc(CCN3CCCCC3CO)[nH]c2C1 (stereo unspecified) | 4.33%
CC(O)CN1CCN(C(=O)c2cc(Cl)cc3cccnc23)CC1 (stereo unspecified) | -5.43%
CC(c1cccc(-c2ncc(C#N)c(N)n2)c1)N(C)C (stereo unspecified) | -12.5%
O=C(C1CC1)N1CCOC2(CCNCC2)C1 | -10.9%
Cc1ccc(CN2CCNC(C(=O)NC3CC3)C2)cc1C (stereo unspecified) | -10.4%
Cc1ccncc1NS(=O)(=O)c1ccc(Cl)s1 | -3.59%
COc1ccc(C(=O)N2C[C@@H](C)[C@@](C)(O)C2)cc1N1CCOCC1 | 2.73%
CSC(C)C(=O)N(C)C1CCN(c2ccc(Cl)cc2)CC1 (stereo unspecified) | 2.45%
O=C(NCc1ccccn1)NCC(O)c1ccccc1C(F)(F)F (stereo unspecified) | -5.77%
Cc1nc(C2CCN(c3ccccc3)CC2)no1 | 8.78%
CC(=O)Nc1nc(C(=O)NCCOc2ccccc2)cs1 | -6.89%
CNC(=O)C1Cn2ccnc2C2(CCN(C(=O)c3ccccn3)CC2)O1 (stereo unspecified) | -2.1%
CCc1nnc2n1CC(CNCc1ccncc1)CC2 (stereo unspecified) | -6.39%
CC(C)c1nn(C)c(N(C)C)c1CNC1CCCCNC1=O (stereo unspecified) | -4.04%
CS(=O)(=O)N1C[C@@H]2CC[C@H](C1)N(C(=O)Cn1nc3ccccc3n1)C2 | 20.9%
CN1[C@H](CN2CCCC2)C[C@@H]2CN(C(=O)c3cccn3C)CC[C@@H]21 | 1.34%
NS(=O)(=O)c1cccnc1Nc1cccc(Cl)c1Cl | 3.67%
CN(C)S(=O)(=O)N1CCN(C(=O)OC(C)(C)C)CC12CCCCC2 | -6.87%
CO[C@H]1CN(C(=O)c2ccc[nH]2)[C@@H]2COC[C@H]12 | -2.94%
